Results: patent US7067552B2, “Radiosensitizing taxanes and their pharmaceutical preparations” (Florida State University, priority 1995, dated 2006)
“And” between values parts separate entries of the source, which are not always exact repeats. Equal entries are not always repeated. “Also recorded” adds a separate entry of the source. Where two headings read alike, the source gives them in different places.

What was measured:
[1] = In vivo drug toxicity (acute toxicity); details: C3H/HeJ, mouse, in vivo, ip
[2] = system: CHO cells; experiment: In vitro chemotherapeutic radiosensitization, CHO cells; format: cell-based, Chinese hamster; details: for radiosensitization of CHO cells (in words): different radiation doses; for sensitizer enhancement ratio (SER): irradiated after two hours incubation
[3] = system: HCT-116 cells; experiment: In vitro chemotherapeutic radiosensitization, HCT-116 cells; format: cell-based, human; details: for radiosensitization of HCT-116 cells (in words): different radiation doses; for sensitizer enhancement ratio (SER): irradiated after two hours incubation
[4] = system: C3H/HeJ mice; details: mouse, in vivo
[5] = system: mouse mammary adenocarcinoma (MTG-B); experiment: In vivo chemotherapeutic activity in MTG-B tumor bearing mice; design: species or system C3H/Hej mice
[6] = system: MTG-B tumor; format: in vivo, C3H/Hej mice
[7] = system: C3H/HeJ mice; experiment: In vivo drug toxicity (acute toxicity); details: for LD50/5: C3H/HeJ mice
[8] = system: Chinese hamster ovary (CHO) cells; experiment: In vitro chemotherapeutic activity, colony forming assay, CHO cells; format: cell-based; details: at the 50% survival level; 37° C. for 24 hours
Procedure: (§1) 4.1. In vitro chemotherapeutic activity. Chinese hamster ovary (CHO) and human colon carcinoma (HCT-116) cells were treated with different concentrations of taxol, taxoltere metro, or taxoltere p-nip at 37° C. for 24 hours. Cell survival was evaluated by the colony forming assay.

[9] = system: MTG-B mammary tumors; design: species or system mice; details: mouse, in vivo, ip
[10] = system: human colon carcinoma (HCT-116) cells; experiment: In vitro chemotherapeutic activity, colony forming assay, HCT-116 cells; format: cell-based; details: at the 1% survival level; 37° C. for 24 hours
Procedure: as §1

## CC(=O)O[C@H]1C(=O)[C@@]2(C)[C@H]([C@H](OC(=O)c3ccccc3)[C@]3(O)C[C@H](OC(=O)[C@H](O)[C@@H](NC(=O)c4ccccc4)c4ccccc4)C(C)=C1C3(C)C)[C@]1(OC(C)=O)CO[C@@H]1C[C@@H]2O [taxol, reference compound]
[1]
  LD50 at 5 days: 141 mg/kg
[2]
  radiosensitization of CHO cells (in words): does not
[3]
  radiosensitization of HCT-116 cells (in words): does not
[4]
  Severe toxic symptoms (constriction of pupils, rough hair): observed
[5]; 40% of the LD50/5 dose, MTG-B tumor-bearing mice, control 13 days
  survival time: 17 days
[5]; 40% of the LD50/5 dose, versus control 13 days
  increase of survival time / life span: 31%
[6]; single dose i.p., 40% of LD50/5, drug alone, control 3.5 days
  tumor doubling time (TDT): 14.5 days
[6]; single dose i.p., 40% of LD50/5, plus 22 Gy Xray one day later, 22 Gy alone 8.5 days
  tumor doubling time (TDT): 19.5 days

## N-debenzoyl-N-(t-butylcarbamoyl)-3′-desphenyl-3′-(4-nitrophenyl) taxol [taxoltere p-nip]
[7]; i.p.
  LD50/5: 79.13 mg/kg
[7]; i.v.
  LD50/5: 134.16 mg/kg
[2]; concentration not given
  sensitizer enhancement ratio (SER): 1.6
[2]
  radiosensitization of CHO cells (in words): strongly radiosensitize
[8]
  times more effective than taxol in killing CHO cells: about 45 times
[9]
  cure rate: 40% and 75%
[3]; concentration not given
  sensitizer enhancement ratio (SER): 1.5
[3]
  radiosensitization of HCT-116 cells (in words): strongly radiosensitize
[5]; mouse, in vivo
  increase of survival time / life span: 1015%
  survival time: 145 days
  times more effective than taxol under equitoxic conditions: 33 times
  tumor doubling times (in words): even further extended; also recorded: again greatly extended
[6]; mouse, in vivo, ip
  tumor doubling time (TDT): 36.5 days and 65 days
[6]; mouse, in vivo, iv
  tumor doubling time: 52 days
[10]
  times more effective than taxol in killing HCT-116 cells: about 30 times

## N-debenzoyl-N-(t-butylcarbamoyl)-7-(metronidazoleoxycarbonyl) taxol [taxoltere metro]
[7]; 24 hours after drug administration, high drug dose levels
  Severe toxic symptoms (constriction of pupils, rough hair): not
[7]; i.p.
  LD50/5: 249.67 mg/kg
[2]; 100 nM
  sensitizer enhancement ratio (SER): 2.3
[2]
  radiosensitization of CHO cells (in words): strongly radiosensitize
[8]
  times more effective than taxol in killing CHO cells: about 15 times
[3]; 10 nM
  sensitizer enhancement ratio (SER): 1.2
[3]
  radiosensitization of HCT-116 cells (in words): strongly radiosensitize
[5]; mouse, in vivo
  increase of survival time / life span: 123%
  survival time: 29 days
  times more effective than taxol under equitoxic conditions: 4 times
  tumor doubling times (in words): again greatly extended
[6]; mouse, in vivo, ip
  tumor doubling time (TDT): 20.5 days and 29.5 days
[10]
  times more effective than taxol in killing HCT-116 cells: about 10 times
